{
  "source": "patent US7572436B1",
  "about": "“Thionin as an antineoplastic and immunostimulant” (priority 2000, dated 2009)",
  "key": {"YAC-1 target cells": {"test_system": "YAC-1 target cells", "test": "Natural killer assay (^51Cr release), murine splenocytes against YAC-1", "type": "cell-based", "conditions": "for % Cell Lysis: Balb/C splenocytes, ^51Cr loaded YAC-1 cells", "experimental": "(§1) Murine spleen cell and human peripheral blood lymphocytes (PBLs) were obtained as described in the procedure for the Mitogen Assay.\n(§2) Drugs and control substances were added, using sterile techniques, to the wells of a 24-well plate, using RPMI-10 as the culture medium. Spleen cells or human lymphocytes were added last to the wells at a concentration of 4×10^6 cells per 2 ml total volume in the well. Splenocyte incubation was usually three days (65-70 hours) while human lymphocyte stimulation may be extended to four to five days. The cells were incubated at 37° C. in a humidified 5% CO2 incubator.\nOn the day of harvest, 10^7 target cells were labeled with 150 μCi of ^51Cr (sodium chromate). Target cells used were YAC-I (murine Lymphoma) or K562 (human chronic myelogenous leukemia).\nThe cells were adjusted to 2×10^7 cells/ml in RPMI-10 and 150 μCi of ^51Cr were added to 500 μl of the target cell suspension (10^7 total cells) and incubated in a 5% CO2 humidified incubator for 1.5 hours. The labeled cells were washed three times with 10 ml RPMI-10 and then resuspended in 5 ml (2×10^6 cells/ml). Supernatants from washings of labeled cells were isolated and contained under lead shielding.\nThe stimulated effector cells were thoroughly mixed and removed from individual wells of the 24-well plate and transferred to tubes for centrifugation at 200×g. The supernatants were decanted and the pelleted cells washed once with 2 ml RPMI-10. The cells were finally resuspended in a total volume of 500 μl at approximately 8×10^6 cells/ml in RPMI-10.\nOne hundred microliters of the effector cell suspension (8×10^5 cells) were added in triplicate to a 96-well, V-bottom microplate. RPMI-10 was added to the wells designated for spontaneous release and total release of the target cells. One hundred microliters of the target cell suspension (1×10^4 cells/well) were added to the wells for a total volume of 200 μl. The “total release” wells contained 15 μl of 9% Triton X-100, 85 μl of RPMI-10, and 100 μl of target cells.\nThe 96-well plate was centrifuged at 150×g for four minutes to gently bring the effector and target cells in contact. The plate was then incubated in a humidified 5% CO2 incubator. After four hours, the assay plate was again centrifuged for five minutes at 250×g. One hundred microliters of the supernatant was carefully removed from each well and placed in 12 mm×75 mm glass tubes for counting in a gamma counter. The percent release was calculated using the following formula: […]\nAddition of PT stimulates both murine splenocytes and human PBLs to kill tumor cells through lysis. This effect is enhanced in the presence of IL-2. Experimentally, the YAC-1 tumor cell line is routinely used as a target cell for murine NK cells, and the K562 cell line is used as the target for human PBLs. The human prostate cell line DU145 was also included in the test. The data set out in Table 5 show an activation of both murine and human NK cells by PT and IL-2. For these experiments, the drugs, PT and IL-2, were included in the cell suspension and incubated for 48 hours. After this period, the splenocyte suspension was mixed with the YAC-1 target cells that had been loaded with ^51Cr for four hours. The human PBLs were added to a K562 or DU-145 cell suspension that had been similarly loaded. After a 30-minute incubation, the radioactivity in the supernatant fluid was counted as a measure of lysis of the target cells, which reflects NK activity. […]"}, "K562 Target Cells": {"test_system": "K562 Target Cells", "test": "Natural killer assay (^51Cr release), human PBLs against K562", "type": "cell-based", "conditions": "PT 0.01 μg/ml", "experimental": "as §1, §2\nOn the day of harvest, 10^7 target cells were labeled with 150 μCi of ^51Cr (sodium chromate). Target cells used were YAC-I (murine Lymphoma) or K562 (human chronic myelogenous leukemia). […]\nThe 96-well plate was centrifuged at 150×g for four minutes to gently bring the effector and target cells in contact. […] The percent release was calculated using the following formula: […]\nAddition of PT stimulates both murine splenocytes and human PBLs to kill tumor cells through lysis. […] After a 30-minute incubation, the radioactivity in the supernatant fluid was counted as a measure of lysis of the target cells, which reflects NK activity. […]"}, "[1]": {"test_system": "membrane structure of cells or phospholipid vesicles", "conditions": "reported in the literature; begin around this value and continue up to and above 20 μg/ml; cited from earlier work"}},
  "note": "Where no end group is shown, it is not given here.",
  "data": [
    {"substance": "Pyrularia thionin (KSCCRNTWARNCYNVCRLPGTISREICAKKCDCKIISGTTCPSDYPK; ends and bridges not checked; also: labeled with 125I) [PT]", "values": [
      {"measurement": "% Cell Lysis", "setting": "YAC-1 target cells; 0.01 μg/ml", "result": "−0.9 ± 0.5", "unit": "%"},
      {"measurement": "% Cell Lysis", "setting": "YAC-1 target cells; 0.03 μg/ml", "result": "2.1 ± 0.2", "unit": "%"},
      {"measurement": "% Cell Lysis", "setting": "YAC-1 target cells; 0.1 μg/ml", "result": "1.8 ± 0.4", "unit": "%"},
      {"measurement": "% Cytotoxicity", "setting": "YAC-1 target cells; Swiss Webster murine splenocytes, YAC-1 targets, 48 hours with drugs, PT 0.01 μg/ml, IL-2 50 units/ml when present, effector to target ratio 80", "result": "3.4 ± 0.9", "unit": "%"},
      {"measurement": "% Cytotoxicity", "setting": "K562 Target Cells", "result": "8.4 ± 0.1", "unit": "%"},
      {"measurement": "concentrations required to induce changes in the membrane structure of cells or phospholipid vesicles", "setting": "[1]", "result": "≥ 1000", "unit": "ng/mL"}
    ]}
  ]
}
